This assay deals with T1, PILS-Nir1 (6xHis-tagged LNS2 domain of Nir1) (Homo sapiens, UniProt Q9BZ71).
T1 construct: gene PITPNM3; LNS2 (PILS) domain, residues 609-912 in Methods but 604-912 in Results; TEV-cleavable N-terminal 6xHis tag (pTHT), codon-optimised, expressed in E. coli BL21(DE3) RIPL
T1 sequence (Q9BZ71 609-912): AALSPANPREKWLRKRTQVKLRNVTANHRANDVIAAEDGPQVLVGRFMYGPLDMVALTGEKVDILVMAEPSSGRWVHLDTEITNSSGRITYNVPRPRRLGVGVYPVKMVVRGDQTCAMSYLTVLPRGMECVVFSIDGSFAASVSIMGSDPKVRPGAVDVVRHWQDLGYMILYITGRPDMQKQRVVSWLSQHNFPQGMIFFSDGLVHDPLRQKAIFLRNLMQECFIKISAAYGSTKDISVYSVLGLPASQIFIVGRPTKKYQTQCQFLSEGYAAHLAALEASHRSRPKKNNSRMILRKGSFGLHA
The assay can be described thus: liposome cosedimentation, SDS-PAGE densitometry. Type of assay: binding. As to conditions: 20 mol% PA / 80 mol% PC liposomes, 20 mM Tris pH 7.5, 150 mM NaCl; one-site fit with background; 95% C.I. 110.1–789.9 µM.

Our source for the Kd values is paper PMC12419160 (The Journal of Cell Biology, 2025).

pKd: −log10 of the molar value.

As to phosphatidic acid [PA], the negative-log Kd (pKd) was 3.37.
